Data published in patent US20250197387A1, “BCL-XL DEGRADERS AND USES THEREOF” (Kymera Therapeutics, Inc., priority 2021, published 2025).
Read-outs that look alike come from different tables or passages of the source.

Assays:
Assay type in all cases: cell-based
BCL-XL [1] = target: T1, BCL-XL (Homo sapiens, UniProt Q07817); assay: BCL-XL degradation assay, western blot in MOLT-4 cells, 16 h; settings: for DC50: read-out: Bcl-xL WB in MOLT-4 degradation 16 h: Mean external-Abs DC50
T1 construct: endogenous in cells; host or cells: MOLT-4
T1 sequence (Q07817 whole entry): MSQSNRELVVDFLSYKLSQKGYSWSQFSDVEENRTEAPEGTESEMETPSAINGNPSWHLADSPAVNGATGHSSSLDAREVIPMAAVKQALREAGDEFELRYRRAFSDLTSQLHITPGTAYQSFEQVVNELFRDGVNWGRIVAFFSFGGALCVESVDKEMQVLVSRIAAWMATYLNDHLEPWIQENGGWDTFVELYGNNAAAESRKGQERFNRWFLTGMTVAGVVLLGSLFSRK
In short: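 Infrared-imaged western blots quantified BCL-xL (normalised against beta-actin/GAPDH) after 16 hr, 37° C exposure of MOLT-4 cells to 0.02-10 μM compound; results given as DC50 and Dmax % bins.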

BCL-XL [2] = target: T1, BCL-XL; assay: Bcl-xL ELISA degradation in MOLT-4 cells, 6 h; settings: for DC50: read-out: Bcl-xL ELISA in MOLT-4 degradation 6 h: Mean external-Abs DC50
Protocol: The letter codes for BCL-XL DC50 include: A (<0.01 μM); B (0.01-0.1 μM); C (>[…]); D (>0.5-1.0 μM); and E (>1.0 μM). The letter codes for Dmax % include A (>75%); B (50 to 75%); C (<50%).

MOLT-4 cells = assay: CTG (CellTiter-Glo) cell viability assay, MOLT-4; settings: 3 day incubation, read-out: CTG Cell Viability Assay - MOLT-4 3 day: Average external-IC50
In short: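 10,000 cells/well; 9 doses, 1:3 from 10 μM top; 0.2% DMSO; 3 d, 37 °C, 5% CO2; CTG luminescence; IC50 via 3-parameter logistic fit. Letter bins differ: Caki-2 C/D cut at 10.0 μM, MOLT-4 at 3.0 μM.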

[3] = western blot, MOLT-4 cells, 16 h, read-out: Bcl-xL WB in MOLT-4 degradation 16 h: Average Dmax %
[4] = western blot, MOLT-4 cells, 16 h

| SMILES | Dmax (BCL-XL [1]; [3]) [%] | DC50 (BCL-XL [1]; [4]) [nM] | Dmax (BCL-XL [2]) [%] | DC50 (BCL-XL [2]) [nM] | IC50 (MOLT-4 cells; Homo sapiens, MOLT-4, 72 h) [nM] | Bcl-xL WB in MOLT-4 degradation 16 h: Average Dmax % (BCL-XL [1]; [4]) | Bcl-xL ELISA in MOLT-4 degradation 6 h: Average Dmax % (BCL-XL [2]) | IC50 (MOLT-4 cells) [nM] | Dmax (BCL-XL [1]; MOLT-4, read-out: Bcl-xL WB in MOLT-4 degradation 16 h: Average Dmax %) [%] | IC50 (MOLT-4 cells; Homo sapiens, 72 h) [nM] |
| --- | --- | --- | --- | --- | --- | --- | --- | --- | --- | --- |
| Cc1ncsc1-c1ccc(CNC(=O)[C@@H]2C[C@@H](O)CN2C(=O)[C@@H](NC(=O)C2(F)CC2)C(C)(C)C)c(OCC(=O)N2CCN(CC#Cc3ccc(OCCCc4sc(N5CCc6cccc(C(=O)Nc7nc8ccccc8s7)c6C5)nc4C(=O)O)c(F)c3)CC2)c1 [I-170] | > 75 | 10 to 100 | 50 to 75 | 10 to 100 | 100 to 1000 |  |  |  |  |  |
| Cc1ncsc1-c1ccc(CNC(=O)[C@@H]2C[C@@H](O)CN2C(=O)[C@H](c2cc(N3CC4(CN(CCCC(=O)N(C)CC#Cc5ccc(OCCCc6ccc(N7CCc8cccc(C(=O)Nc9nc%10ccccc%10s9)c8C7)nc6C(=O)O)c(F)c5)C4)C3)no2)C(C)C)cc1 [I-181] | > 75 | < 10 | 50 to 75 | 10 to 100 | 100 to 1000 |  |  |  |  |  |
| Cc1ncsc1-c1ccc(CNC(=O)[C@@H]2C[C@@H](O)CN2C(=O)[C@H](c2cc(OCCCCCCCCC(=O)N(C)CC#Cc3ccc(OCCCc4ccc(N5CCc6cccc(C(=O)Nc7nc8ccccc8s7)c6C5)nc4C(=O)O)c(F)c3)no2)C(C)C)cc1 [I-172] | > 75 | < 10 | 50 to 75 | 10 to 100 | 100 to 1000 |  |  |  |  |  |
| Cc1ncsc1-c1ccc([C@H](C)NC(=O)[C@@H]2C[C@@H](O)CN2C(=O)[C@@H](NC(=O)CO[C@H]2C[C@H](OCCNC(=O)c3nc(N4CCc5cccc(C(=O)Nc6nc7ccccc7s6)c5C4)ccc3-c3cnn(CC4CCCCC4)c3C)C2)C(C)(C)C)cc1 [I-182] | > 75 | 10 to 100 | 50 to 75 | 100 to 500 | 100 to 1000 |  |  |  |  |  |
| C#Cc1ccc([C@H](CO)NC(=O)[C@@H]2C[C@@H](O)CN2C(=O)[C@@H](NC(=O)CCc2ccc(S(=O)(=O)NC(=O)c3nc(N(C)c4cc(C)c(Nc5nc6ccccc6s5)nn4)ccc3-c3cnn(CC4CCCCC4)c3C)cc2)C(C)(C)C)cc1 [I-186] | > 75 | 10 to 100 | 50 to 75 | 10 to 100 | 100 to 1000 |  |  |  |  |  |
| Cc1ncsc1-c1ccc(CNC(=O)[C@@H]2C[C@@H](O)CN2C(=O)[C@@H](NC(=O)C2(F)CC2)C(C)(C)C)c(OCCN2CCC(CS(=O)(=O)NC(=O)c3nc(N4CCc5cccc(C(=O)Nc6nc7ccccc7s6)c5C4)ccc3-c3cnn(CC4CCCCC4)c3C)CC2)c1 [I-189] | > 75 | 10 to 100 | 50 to 75 | 10 to 100 | 100 to 1000 |  |  |  |  |  |
| Cc1ncsc1-c1ccc(CNC(=O)[C@@H]2C[C@@H](O)CN2C(=O)[C@H](c2cc(N3CC4(CN(C(=O)CCCCC(=O)N(C)CC#Cc5ccc(OCCCc6ccc(N7CCc8cccc(C(=O)Nc9nc%10ccccc%10s9)c8C7)nc6C(=O)O)c(F)c5)C4)C3)no2)C(C)C)cc1 [I-192] | 50 to 75 | < 10 | < 50 | > 1000 | 1000 to 3000 |  |  |  |  |  |
| Cc1ncsc1-c1ccc([C@H](C)NC(=O)[C@@H]2C[C@@H](O)CN2C(=O)[C@@H](NC(=O)CN2CC(N3CCC(NC(=O)c4nc(N5CCc6cccc(C(=O)Nc7nc8ccccc8s7)c6C5)ccc4-c4cnn(CC5CCCCC5)c4C)CC3)C2)C(C)(C)C)cc1 [I-176] |  | 10 to 100 | 50 to 75 | 100 to 500 |  |  |  |  | > 75 | 100 to 1000 |

More lines, main results first:

| Dmax (BCL-XL [1]; [3]) [%] | DC50 (BCL-XL [1]; [4]) [nM] | Dmax (BCL-XL [2]) [%] | DC50 (BCL-XL [2]) [nM] | IC50 (MOLT-4 cells; Homo sapiens, MOLT-4, 72 h) [nM] | Bcl-xL WB in MOLT-4 degradation 16 h: Average Dmax % (BCL-XL [1]; [4]) | Bcl-xL ELISA in MOLT-4 degradation 6 h: Average Dmax % (BCL-XL [2]) | IC50 (MOLT-4 cells) [nM] | SMILES | Dmax (BCL-XL [1]; MOLT-4, read-out: Bcl-xL WB in MOLT-4 degradation 16 h: Average Dmax %) [%] | IC50 (MOLT-4 cells; Homo sapiens, 72 h) [nM] |
| --- | --- | --- | --- | --- | --- | --- | --- | --- | --- | --- |
| > 75 | < 10 | > 75 | 10 to 100 | 100 to 1000 |  |  |  | Cc1ncsc1-c1ccc([C@H](C)NC(=O)[C@@H]2C[C@@H](O)CN2C(=O)[C@@H](NC(=O)CCCCCCCCC(=O)N2CCN(CC#Cc3ccc(OCCCc4sc(N5CCc6cccc(C(=O)Nc7nc8ccccc8s7)c6C5)nc4C(=O)O)c(F)c3)CC2)C(C)(C)C)cc1 [I-204] |  |  |
| 50 to 75 | 100 to 500 | < 50 | > 1000 | 100 to 1000 |  |  |  | Cc1ncsc1-c1ccc(CNC(=O)[C@@H]2C[C@@H](O)CN2C(=O)[C@@H](NC(=O)C2(F)CC2)C(C)(C)C)c(OCCN2CC3(C2)CN(C(=O)c2nc(N4CCc5cccc(C(=O)Nc6nc7ccccc7s6)c5C4)ccc2-c2cnn(CC4CCCCC4)c2C)C3)c1 [I-207] |  |  |
| > 75 | 10 to 100 | 50 to 75 | 100 to 500 | < 100 |  |  |  | Cc1ncsc1-c1ccc([C@H](C)NC(=O)[C@@H]2C[C@@H](O)CN2C(=O)[C@@H](NC(=O)CCC2CCC(S(=O)(=O)NC(=O)c3nc(N4CCc5cccc(C(=O)Nc6nc7ccccc7s6)c5C4)ccc3-c3cnn(CC4CCCCC4)c3C)CC2)C(C)(C)C)cc1 (stereo partly drawn) [I-209] |  |  |
| > 75 | 100 to 500 | 50 to 75 | 100 to 500 | 100 to 1000 |  |  |  | Cc1ncsc1-c1ccc([C@H](C)NC(=O)[C@@H]2C[C@@H](O)CN2C(=O)[C@@H](NC(=O)N2CC(c3ccc(S(=O)(=O)NC(=O)c4nc(N5CCc6cccc(C(=O)Nc7nc8ccccc8s7)c6C5)ccc4-c4cnn(CC5CCCCC5)c4C)cc3)C2)C(C)(C)C)cc1 [I-210] |  |  |
| 50 to 75 | 500 to 1000 | < 50 | > 1000 | 100 to 1000 |  |  |  | Cc1ncsc1-c1ccc(CNC(=O)[C@@H]2C[C@@H](O)CN2C(=O)[C@@H](NC(=O)C2(F)CC2)C(C)(C)C)c(OCCC2CN(CC[C@H](CSc3ccccc3)Nc3ccc(S(=O)(=O)NC(=O)c4ccc(N5CCN(CC6=C(c7ccc(Cl)cc7)CCC(C)(C)C6)CC5)cc4)cc3S(=O)(=O)C(F)(F)F)C2)c1 [I-208] |  |  |
| > 75 | < 10 | 50 to 75 | 10 to 100 | 100 to 1000 |  |  |  | Cc1ncsc1-c1ccc([C@H](C)NC(=O)[C@@H]2C[C@@H](O)CN2C(=O)[C@@H](NC(=O)COCCN2CCC(S(=O)(=O)NC(=O)c3nc(N4CCc5cccc(C(=O)Nc6nc7ccccc7s6)c5C4)ccc3-c3cnn(CC4CCCCC4)c3C)CC2)C(C)(C)C)cc1 [I-206] |  |  |
| > 75 | < 10 | > 75 | 10 to 100 | < 100 |  |  |  | C#Cc1ccc([C@H](CO)NC(=O)[C@@H]2C[C@@H](O)CN2C(=O)[C@@H](NC(=O)CCc2ccc(S(=O)(=O)NC(=O)c3nc(N4CCc5cccc(C(=O)Nc6nc7ccccc7s6)c5C4)ccc3-c3cnn(CC4CCCCC4)c3C)cc2)C(C)(C)C)cc1 [I-194] |  |  |
| > 75 | < 10 | 50 to 75 | 100 to 500 | 100 to 1000 |  |  |  | Cc1ncsc1-c1ccc([C@H](C)NC(=O)[C@@H]2C[C@@H](O)CN2C(=O)[C@@H](NC(=O)N2CC(N3CCC(S(=O)(=O)NC(=O)c4nc(N5CCc6cccc(C(=O)Nc7nc8ccccc8s7)c6C5)ccc4-c4cnn(CC5CCCCC5)c4C)CC3)C2)C(C)(C)C)cc1 [I-212] |  |  |
|  | < 10 |  | 100 to 500 |  | A (A (>75%)) | C (C (<50%)) | 100 to 1000 | Cc1ncsc1-c1ccc([C@H](C)NC(=O)[C@@H]2C[C@@H](O)CN2C(=O)[C@@H](NC(=O)CCCCCCC(=O)N2CCN(CC3(C)CCC(c4ccc(Cl)cc4)=C(CN4CCN(c5ccc(C(=O)NS(=O)(=O)c6ccc(N[C@H](CCN7CCOCC7)CSc7ccccc7)c(S(=O)(=O)C(F)(F)F)c6)cc5)CC4)C3)CC2)C(C)(C)C)cc1 (stereo partly drawn) [I-399] |  |  |
| > 75 | 10 to 100 | < 50 | > 1000 | 100 to 1000 |  |  |  | Cc1cc([C@H](C(=O)N2C[C@H](O)C[C@H]2C(=O)NCc2ccc(-c3scnc3C)cc2OCCCCCCNC(=O)c2nc(N3CCc4cccc(C(=O)Nc5nc6ccccc6s5)c4C3)ccc2-c2cnn(CC3CCCCC3)c2C)C(C)C)on1 [I-197] |  |  |
| < 50 | > 1000 |  |  | 100 to 1000 |  |  |  | Cc1cc(N(C)c2ccc(-c3cnn(CC4CCCCC4)c3C)c(C(=O)NCCCCCCOc3cc(-c4scnc4C)ccc3CNC(=O)[C@@H]3C[C@@H](O)CN3C(=O)[C@@H](NC(=O)C3(F)CC3)C(C)(C)C)n2)nnc1Nc1nc2ccccc2s1 [I-203] |  |  |
